ChEMBL document CHEMBL1139472, “Synthesis of N-{4-[(2,4-diamino-5-methyl-4,7-dihydro-3H-pyrrolo[2,3-d]pyrimidin-6-yl)thio]benzoyl}-L-glutamic acid and N-{4-[(2-amino-4-oxo-5-methyl-4,7-dihydro-3H-pyrrolo[2,3-d]pyrimidin-6-yl)thio]benzoyl}-L-glutamic acid as dual inhibitors of dihydrofolate reductase and thymidylate synthase and …” (J Med Chem, 2005)
Calls of active or inactive are those of the source. The rule behind the calls is not given here.

Tests used:
[1] = biological target: T1, Folylpolyglutamate synthase, mitochondrial (Homo sapiens) (UniProt Q05932); assay: Ratio of Vmax relative to […] to Km of human recombinant cytosolic FPGS
T1 sequence (whole entry): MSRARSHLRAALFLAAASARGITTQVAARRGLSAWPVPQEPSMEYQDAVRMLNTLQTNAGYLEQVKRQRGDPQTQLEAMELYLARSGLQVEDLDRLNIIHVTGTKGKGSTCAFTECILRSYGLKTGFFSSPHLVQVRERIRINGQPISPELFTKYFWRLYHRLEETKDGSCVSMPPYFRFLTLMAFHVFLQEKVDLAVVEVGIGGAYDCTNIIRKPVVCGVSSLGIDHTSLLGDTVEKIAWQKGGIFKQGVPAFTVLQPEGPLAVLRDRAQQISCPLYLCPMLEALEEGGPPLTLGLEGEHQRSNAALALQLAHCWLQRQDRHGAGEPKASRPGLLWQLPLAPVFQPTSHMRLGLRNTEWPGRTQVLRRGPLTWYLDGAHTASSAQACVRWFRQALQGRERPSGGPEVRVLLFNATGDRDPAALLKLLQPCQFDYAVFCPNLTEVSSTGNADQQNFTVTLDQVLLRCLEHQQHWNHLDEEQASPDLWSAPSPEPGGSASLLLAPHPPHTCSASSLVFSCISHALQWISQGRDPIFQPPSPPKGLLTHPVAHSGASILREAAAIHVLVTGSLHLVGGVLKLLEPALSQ

CCRF-CEM = assay: Growth inhibition of human CCRF-CEM cells at 20 uM; format: functional, cell-based

SMILES | Ratio [1] | Activity (CCRF-CEM)
Cc1c(Sc2ccc(C(=O)N[C@@H](CCC(=O)O)C(=O)O)cc2)[nH]c2nc(N)[nH]c(=O)c12 | 0.06 | inactive
Nc1nc(N)c2nc(CNc3ccc(C(=O)N[C@@H](CCC(=O)O)C(=O)O)cc3)cnc2n1 | 0.17 | 
